Like-named read-outs stand apart in the source and are kept apart here.
Tests used:
[1] = system: acutely dissociated and purified rat OPCs; assay: Acute OL differentiation assay (MBP expression/cell, immunofluorescent image quantification); assay type: cell-based; settings: sheet "All OLga data"; for activation at 2 µM / activation at 10 µM / activation at 0.4 µM / activation at 0.08 µM: Rattus norvegicus; for activation at 0.08 µM: test compound at 0.08 uM, read-out: 0.08 uM (% Quet)
How it was run: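 This acute differentiation assay used purified rat OPCs from postnatal day 6–7 pups, seeded into PDL/laminin-coated 96-well plates in differentiation medium lacking PDGF and FGF. Compounds were applied in quadruplicate after a 1–2 h preincubation at 37 °C, 10 % CO2, with 0.1 % DMSO negative and 40 ng/ml T3 positive controls in eight wells. After fixation on DIV4, anti-MBP immunofluorescence images yielded MBP expression/cell.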

[2] = system: expanded OPCs; assay: cells; settings: for viability at 0.1 µM / viability at 1 µM / viability at 10 µM: Rattus norvegicus, 72 h
How it was run: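 Toxicity screen: compounds added at 0.1, 1 and 10 µM to PDGF-AA-expanded OPCs in 96-well plates, 3-day incubation at 37 °C, 10% CO2, then alamarBlue 1:10 for 4 h with fluorescence readout. Results set screening doses of 10/2, 2/0.4 or 0.4/0.08 µM.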

[3] = 2 uM test compound, relative to quetiapine, read-out: OL differentiation, 2 uM (% Quet)
[4] = 10 uM test compound, relative to quetiapine, read-out: OL differentiation, 10 uM (% Quet)
[5] = read-out: 0.1 µM (% DMSO), alamarBlue viability, NCC library compound at 0.1 µM, sheet "All Tox data"
[6] = read-out: 1 µM (% DMSO), alamarBlue viability, NCC library compound at 1 µM, sheet "All Tox data"
[7] = read-out: 10 µM (% DMSO), alamarBlue viability, NCC library compound at 10 µM, sheet "All Tox data"
[8] = test compound at 0.4 uM, MBP expression relative to quetiapine, NCC library screen, read-out: 0.4 uM (% Quet)
[9] = test compound at 2 uM, MBP expression relative to quetiapine, NCC library screen, read-out: 2 uM (% Quet)
[10] = alamarBlue viability of expanded OPCs, compound at 0.1 µM, relative to DMSO control
[11] = alamarBlue viability of expanded OPCs, compound at 1 µM, relative to DMSO control
[12] = alamarBlue viability of expanded OPCs, compound at 10 µM, relative to DMSO control
[13] = 0.4 uM test compound, relative to quetiapine, read-out: OL differentiation, 0.4 uM (% Quet)
[14] = read-out: 0.1 µM (% DMSO), alamarBlue viability of expanded OPCs, compound at 0.1 µM, sheet All Tox data
[15] = read-out: 1 µM (% DMSO), alamarBlue viability of expanded OPCs, compound at 1 µM, sheet All Tox data
[16] = read-out: 10 µM (% DMSO), alamarBlue viability of expanded OPCs, compound at 10 µM, sheet All Tox data
[17] = test compound at 2 uM, NCC library screen, relative to quetiapine
[18] = alamarBlue viability, NCC library compound at 0.1 µM, sheet "All Tox data"
[19] = alamarBlue viability, NCC library compound at 1 µM, sheet "All Tox data"
[20] = alamarBlue viability, NCC library compound at 10 µM, sheet "All Tox data"
[21] = test compound at 10 uM, MBP expression relative to quetiapine, NCC library screen, read-out: 10 uM (% Quet)
[22] = test compound at 2 uM, NCC library screen, relative to quetiapine, read-out: 2 uM (% Quet)
[23] = test compound at 10 uM, NCC library screen, relative to quetiapine, read-out: 10 uM (% Quet)
[24] = MBP expression relative to quetiapine, NCC library screen

SMILES | activation at 2 µM [1, 3] | 0.1 µM (% DMSO) [2, 10] | 1 µM (% DMSO) [2, 11] | 10 µM (% DMSO) [2, 12] | viability at 0.1 µM [2, 14] | viability at 1 µM [2, 15] | viability at 10 µM [2, 16] | also measured
CCOC(=O)O[C@]1(C(=O)OCCl)CC[C@H]2[C@@H]3CCC4=CC(=O)C=C[C@]4(C)[C@H]3[C@@H](O)C[C@@]21C [Loteprednol etabonate] | -10.9% |  |  |  |  |  |  | activation at 10 µM [1, 4]: -29.2%; viability at 0.1 µM [2, 5]: 104%; viability at 1 µM [2, 6]: 98.4%; viability at 10 µM [2, 7]: 86.4%
CC[C@H](C)C(=O)O[C@H]1C[C@@H](C)C=C2C=C[C@H](C)[C@H](CC[C@@H]3C[C@@H](O)CC(=O)O3)[C@H]21 [Lovastatin] |  | 147.6 % DMSO | 99.7 % DMSO | 46.0 % DMSO |  |  |  | activation at 0.4 µM [1, 8]: -70.9%; activation at 2 µM [1, 9]: -93.2%
CN1CCN(C2=Nc3ccccc3Oc3ccc(Cl)cc32)CC1 [Loxapine] | -18.5% |  |  |  | 85.7% | 71.4% | 29% | activation at 0.4 µM [1, 13]: -5.9%
CC(C)c1ccc2c(c1)c(SC(C)(C)C)c(CC(C)(C)C(=O)O)n2Cc1ccc(Cl)cc1 [MK 886] |  |  |  |  |  |  |  | 0.4 uM (% Quet) ([1]; test compound at 0.4 uM, NCC library screen, relative to quetiapine): 51.1 % Quet; 2 uM (% Quet) [1, 17]: -93.5 % Quet; 0.1 µM (% DMSO) [2, 18]: 97.3 % DMSO; 1 µM (% DMSO) [2, 19]: 107.0 % DMSO; 10 µM (% DMSO) [2, 20]: 10.8 % DMSO
NCc1ccc(S(N)(=O)=O)cc1 [Mafenide] |  | 97.9 % DMSO | 90.1 % DMSO | 86.7 % DMSO |  |  |  | activation at 2 µM [1, 9]: 28.6%; activation at 10 µM [1, 21]: 10%
Cc1occc(=O)c1O [Maltol] |  |  |  |  |  |  |  | activation at 2 µM [1, 22]: -7%; activation at 10 µM [1, 23]: 8.2%; viability at 0.1 µM [2, 5]: 83.5%; viability at 1 µM [2, 6]: 91.1%; viability at 10 µM [2, 7]: 84.9%
CNCCCC12CCC(c3ccccc31)c1ccccc12 [Maprotiline] | -52.5% |  |  |  | 78.2% | 54.1% | 13.8% | activation at 0.4 µM [1, 13]: 15.2%
COC(=O)Nc1nc2ccc(C(=O)c3ccccc3)cc2[nH]1 [Mebendazole] |  | 47.2 % DMSO | 53.6 % DMSO | 45.7 % DMSO |  |  |  | activation at 0.08 µM [1, 24]: -29.9%; activation at 0.4 µM [1, 8]: -139%
Cc1cccc(CN2CCN(C(c3ccccc3)c3ccc(Cl)cc3)CC2)c1 (stereo not drawn) [Meclizine] |  | 143.0 % DMSO | 107.8 % DMSO | 9.1 % DMSO |  |  |  | activation at 0.4 µM [1, 8]: 96.7%
Cc1ccc(Cl)c(Nc2ccccc2C(=O)O)c1Cl [Meclofenamic acid] |  | 91.1 % DMSO | 93.6 % DMSO | 93.6 % DMSO |  |  |  | activation at 2 µM [1, 9]: 14.1%; activation at 10 µM [1, 21]: -2.1%
CC(=O)O[C@]1(C(C)=O)CC[C@H]2[C@@H]3C[C@H](C)C4=CC(=O)CC[C@]4(C)[C@H]3CC[C@@]21C [Medroxyprogesterone acetate] |  | 104.2 % DMSO | 103.1 % DMSO | 118.4 % DMSO |  |  |  | activation at 2 µM [1, 22]: -30.5%; activation at 10 µM [1, 23]: -36.7%
CC(=O)[C@H]1CC[C@H]2[C@@H]3C[C@H](C)C4=CC(=O)CC[C@]4(C)[C@H]3[C@@H](O)C[C@]12C [Medrysone] |  |  |  |  |  |  |  | activation at 2 µM [1, 22]: -6%; activation at 10 µM [1, 23]: -16.5%; viability at 0.1 µM [2, 5]: 130%; viability at 1 µM [2, 6]: 125%; viability at 10 µM [2, 7]: 121%
Cc1cccc(Nc2ccccc2C(=O)O)c1C [Mefenamic Acid] |  | 92.7 % DMSO | 91.8 % DMSO | 83.6 % DMSO |  |  |  | activation at 2 µM [1, 22]: -4%; activation at 10 µM [1, 23]: -22.3%
OC(c1cc(C(F)(F)F)nc2c(C(F)(F)F)cccc12)C1CCCCN1 (stereo not drawn) [Mefloquine] |  | 39.0 % DMSO | 11.0 % DMSO | 7.4 % DMSO |  |  |  | activation at 0.08 µM [1, 24]: -20.5%; activation at 0.4 µM [1, 8]: -134%
CC(=O)O[C@]1(C(C)=O)CC[C@H]2[C@@H]3C=C(C)C4=CC(=O)CC[C@]4(C)[C@H]3CC[C@@]21C [Megestrol acetate] | -21.6% |  |  |  | 97.2% | 89.3% | 96.5% | activation at 10 µM [1, 4]: -29.4%
Cc1cnc(NC(=O)C2=C(O)c3ccccc3S(=O)(=O)N2C)s1 [Meloxicam] |  | 93.1 % DMSO | 94.6 % DMSO | 86.1 % DMSO |  |  |  | activation at 2 µM [1, 9]: -8.5%; activation at 10 µM [1, 21]: 1.4%
CC1CCN(CCCC(=O)c2ccc(F)cc2)CC1.Cl [Melperone hydrochloride] |  |  |  |  |  |  |  | 2 uM (% Quet) [1, 17]: 39.6 % Quet; 10 uM (% Quet) ([1]; test compound at 10 uM, NCC library screen, relative to quetiapine): 43.4 % Quet; 0.1 µM (% DMSO) [2, 18]: 105.5 % DMSO; 1 µM (% DMSO) [2, 19]: 130.9 % DMSO; 10 µM (% DMSO) [2, 20]: 151.7 % DMSO
CC12CC3CC(C)(C1)CC(N)(C3)C2 [Memantine] | -9.2% | 93.3 % DMSO | 84.1 % DMSO | 67.0 % DMSO | 97.8% | 93.2% | 59.7% | activation at 10 µM [1, 4]: -28.3%; activation at 2 µM [1, 9]: -64.4%; activation at 10 µM [1, 21]: -100%
Cc1cccc(C)c1NC(=O)C1CCCCN1C (stereo not drawn) [Mepivacaine] |  |  |  |  |  |  |  | activation at 2 µM [1, 22]: -6.4%; activation at 10 µM [1, 23]: -0.9%; viability at 0.1 µM [2, 5]: 89.5%; viability at 1 µM [2, 6]: 89.9%; viability at 10 µM [2, 7]: 79.7%
Sc1ncnc2nc[nH]c12 [Mercaptopurine] |  | 92.3 % DMSO | 92.7 % DMSO | 95.9 % DMSO |  |  |  | activation at 2 µM [1, 9]: 3.6%; activation at 10 µM [1, 21]: -5.6%
C[C@@H](O)[C@H]1C(=O)N2C(C(=O)O)=C(S[C@@H]3CN[C@H](C(=O)N(C)C)C3)[C@H](C)[C@H]12 [Meropenem] | -4.2% |  |  |  | 95.8% | 98.1% | 102% | activation at 10 µM [1, 4]: 2.8%
Nc1ccc(O)c(C(=O)O)c1 [Mesalamine] | -9.1% |  |  |  | 86.2% | 92.2% | 87.2% | activation at 10 µM [1, 4]: -0.34%
O=S(=O)(O)CCS [Mesna] |  | 92.5 % DMSO | 91.3 % DMSO | 100.9 % DMSO |  |  |  | activation at 2 µM [1, 9]: -46%; activation at 10 µM [1, 21]: -38.6%
CN1CCCCC1CCN1c2ccccc2Sc2ccc([S+](C)[O-])cc21 (stereo not drawn) [Mesoridazine] | -3.1% |  |  |  | 82.1% | 76.6% | 28.3% | activation at 0.4 µM [1, 13]: 6.6%
C[C@]12CCC(=O)C[C@@H]1CC[C@@H]1[C@@H]2CC[C@@]2(C)[C@H]1CC[C@]2(C)O [Mestanolone] | 0.8% |  |  |  | 102% | 94.1% | 120% | activation at 10 µM [1, 4]: -18%
C#C[C@]1(O)CC[C@H]2[C@@H]3CCc4cc(OC)ccc4[C@H]3CC[C@@]21C [Mestranol] | 92.5% |  |  |  |  |  |  | activation at 10 µM [1, 4]: -6.7%; viability at 0.1 µM [2, 5]: 102%; viability at 1 µM [2, 6]: 103%; viability at 10 µM [2, 7]: 114%
CC(C)NCC(O)c1cc(O)cc(O)c1 (stereo not drawn) [Metaproterenol] |  | 89.2 % DMSO | 91.6 % DMSO | 91.1 % DMSO |  |  |  | activation at 2 µM [1, 9]: -0.7%; activation at 10 µM [1, 21]: 3.5%
C[C@]12CC[C@H](O)CC1=CC[C@@H]1[C@@H]2CC[C@@]2(C)[C@H]1CC[C@]2(C)O [Methandriol] | 4.1% |  |  |  | 91.2% | 87.5% | 88% | activation at 10 µM [1, 4]: -0.6%
